Results reported in PubChem BioAssay (NCI).
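How tested: cells in 96-well plates exposed to compound for 48 hours at five concentrations. TGI is the concentration that stops growth completely.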

Key:
Test in all cases: inhibition of tumour cell growth, NCI panel, 48 h
MDA-MB-231 breast = tested on: MDA-MB-231 breast
PC-3 prostate = tested on: PC-3 prostate
HCT-116 colon = tested on: HCT-116 colon
KM12 colon = tested on: KM12 colon
SF-539 CNS = tested on: SF-539 CNS
RPMI-8226 leukemia = tested on: RPMI-8226 leukemia
OVCAR-8 ovarian = tested on: OVCAR-8 ovarian
TK-10 renal = tested on: TK-10 renal
HT29 colon = tested on: HT29 colon
MOLT-4 leukemia = tested on: MOLT-4 leukemia
NCI-H23 lung = tested on: NCI-H23 lung
UO-31 renal = tested on: UO-31 renal
SF-295 CNS = tested on: SF-295 CNS
LOX IMVI melanoma = tested on: LOX IMVI melanoma
UACC-62 melanoma = tested on: UACC-62 melanoma
SNB-19 CNS = tested on: SNB-19 CNS
MDA-N = tested on: MDA-N
T-47D breast = tested on: T-47D breast
SR leukemia = tested on: SR leukemia
CCRF-CEM leukemia = tested on: CCRF-CEM leukemia
NCI-H522 lung = tested on: NCI-H522 lung
HOP-92 NSCLC = tested on: HOP-92 NSCLC
IGROV1 ovarian = tested on: IGROV1 ovarian
K-562 leukemia = tested on: K-562 leukemia
OVCAR-4 ovarian = tested on: OVCAR-4 ovarian
DU-145 prostate = tested on: DU-145 prostate
HL-60(TB) leukemia = tested on: HL-60(TB) leukemia
SK-MEL-28 melanoma = tested on: SK-MEL-28 melanoma
MALME-3M melanoma = tested on: MALME-3M melanoma
HOP-62 NSCLC = tested on: HOP-62 NSCLC
HCC-2998 colon = tested on: HCC-2998 colon
NCI/ADR-RES ovarian = tested on: NCI/ADR-RES ovarian
SK-OV-3 ovarian = tested on: SK-OV-3 ovarian
EKVX NSCLC = tested on: EKVX NSCLC
COLO 205 colon = tested on: COLO 205 colon
UACC-257 melanoma = tested on: UACC-257 melanoma
U251 CNS = tested on: U251 CNS
MDA-MB-435 = tested on: MDA-MB-435
HS 578T breast = tested on: HS 578T breast
OVCAR-5 ovarian = tested on: OVCAR-5 ovarian
ACHN renal = tested on: ACHN renal
NCI-H460 lung = tested on: NCI-H460 lung
NCI-H226 lung = tested on: NCI-H226 lung
SK-MEL-5 melanoma = tested on: SK-MEL-5 melanoma
SF-268 CNS = tested on: SF-268 CNS
RXF 393 renal = tested on: RXF 393 renal
SK-MEL-2 melanoma = tested on: SK-MEL-2 melanoma
SNB-75 CNS = tested on: SNB-75 CNS
SN12C renal = tested on: SN12C renal
786-0 renal = tested on: 786-0 renal
M14 melanoma = tested on: M14 melanoma
MCF7 breast = tested on: MCF7 breast
HCT-15 colon = tested on: HCT-15 colon
A498 renal = tested on: A498 renal
OVCAR-3 ovarian = tested on: OVCAR-3 ovarian
A549 NSCLC = tested on: A549 NSCLC
BT-549 breast = tested on: BT-549 breast
CAKI-1 renal = tested on: CAKI-1 renal
SW-620 colon = tested on: SW-620 colon

## C=C1c2nc3ccccc3n2C=C(c2ccc(OC)cc2)N1c1ccccc1
MDA-MB-231 breast
  TGI: > 100 µM
PC-3 prostate
  TGI: > 100 µM
HCT-116 colon
  TGI: > 100 µM
KM12 colon
  TGI: > 47.2 µM
SF-539 CNS
  TGI: > 91.2 µM
RPMI-8226 leukemia
  TGI: 45.1 µM
OVCAR-8 ovarian
  TGI: > 69.3 µM
TK-10 renal
  TGI: > 100 µM
HT29 colon
  TGI: 26.7 µM
MOLT-4 leukemia
  TGI: > 55.9 µM
NCI-H23 lung
  TGI: 98.5 µM
UO-31 renal
  TGI: > 91.3 µM
SF-295 CNS
  TGI: > 55.6 µM
LOX IMVI melanoma
  TGI: > 100 µM
UACC-62 melanoma
  TGI: > 57.6 µM
SNB-19 CNS
  TGI: 48.3 µM
MDA-N
  TGI: 8.56 µM
T-47D breast
  TGI: 98.3 µM
SR leukemia
  TGI: > 24.5 µM
CCRF-CEM leukemia
  TGI: > 57.9 µM
NCI-H522 lung
  TGI: 27.2 µM
HOP-92 NSCLC
  TGI: > 100 µM
IGROV1 ovarian
  TGI: > 100 µM
K-562 leukemia
  TGI: > 100 µM
OVCAR-4 ovarian
  TGI: > 100 µM
DU-145 prostate
  TGI: > 100 µM
HL-60(TB) leukemia
  TGI: 7.93 µM
SK-MEL-28 melanoma
  TGI: > 96.7 µM
MALME-3M melanoma
  TGI: 49.8 µM
HOP-62 NSCLC
  TGI: > 100 µM
HCC-2998 colon
  TGI: 39.8 µM
NCI/ADR-RES ovarian
  TGI: 9.64 µM
SK-OV-3 ovarian
  TGI: > 100 µM
EKVX NSCLC
  TGI: > 100 µM
COLO 205 colon
  TGI: > 70.9 µM
UACC-257 melanoma
  TGI: > 100 µM
U251 CNS
  TGI: > 100 µM
MDA-MB-435
  TGI: 4.83 µM
HS 578T breast
  TGI: > 96.6 µM
OVCAR-5 ovarian
  TGI: > 100 µM
ACHN renal
  TGI: > 100 µM
NCI-H460 lung
  TGI: > 34.5 µM
NCI-H226 lung
  TGI: 22.6 µM
SK-MEL-5 melanoma
  TGI: 42.2 µM
SF-268 CNS
  TGI: > 100 µM
RXF 393 renal
  TGI: > 76.1 µM
SK-MEL-2 melanoma
  TGI: 42.4 µM
SNB-75 CNS
  TGI: 58.3 µM
SN12C renal
  TGI: > 100 µM
786-0 renal
  TGI: > 100 µM
M14 melanoma
  TGI: > 60.4 µM
MCF7 breast
  TGI: > 63.5 µM
HCT-15 colon
  TGI: > 56.8 µM
A498 renal
  TGI: > 100 µM
OVCAR-3 ovarian
  TGI: 98 µM
A549 NSCLC
  TGI: > 100 µM
BT-549 breast
  TGI: 71 µM
CAKI-1 renal
  TGI: > 100 µM
SW-620 colon
  TGI: > 65.4 µM

## C=CCN1C(N)=C(C#N)C(C#N)(C#N)C1CCC (stereo unspecified)
MDA-MB-231 breast
  TGI: > 100 µM
PC-3 prostate
  TGI: > 100 µM
HCT-116 colon
  TGI: > 100 µM
KM12 colon
  TGI: > 100 µM
SF-539 CNS
  TGI: > 100 µM
RPMI-8226 leukemia
  TGI: > 100 µM
OVCAR-8 ovarian
  TGI: > 100 µM
TK-10 renal
  TGI: > 100 µM
HT29 colon
  TGI: > 100 µM
MOLT-4 leukemia
  TGI: > 100 µM
NCI-H23 lung
  TGI: > 100 µM
UO-31 renal
  TGI: > 100 µM
SF-295 CNS
  TGI: > 100 µM
LOX IMVI melanoma
  TGI: > 100 µM
UACC-62 melanoma
  TGI: > 100 µM
SNB-19 CNS
  TGI: > 100 µM
MDA-N
  TGI: > 100 µM
T-47D breast
  TGI: > 100 µM
SR leukemia
  TGI: > 100 µM
CCRF-CEM leukemia
  TGI: > 100 µM
NCI-H522 lung
  TGI: > 100 µM
HOP-92 NSCLC
  TGI: > 100 µM
IGROV1 ovarian
  TGI: > 100 µM
K-562 leukemia
  TGI: > 100 µM
OVCAR-4 ovarian
  TGI: > 100 µM
DU-145 prostate
  TGI: > 100 µM
HL-60(TB) leukemia
  TGI: > 100 µM
MALME-3M melanoma
  TGI: > 100 µM
HOP-62 NSCLC
  TGI: > 100 µM
HCC-2998 colon
  TGI: > 100 µM
NCI/ADR-RES ovarian
  TGI: > 100 µM
SK-OV-3 ovarian
  TGI: > 100 µM
EKVX NSCLC
  TGI: > 100 µM
COLO 205 colon
  TGI: > 100 µM
UACC-257 melanoma
  TGI: > 100 µM
U251 CNS
  TGI: > 100 µM
MDA-MB-435
  TGI: > 100 µM
HS 578T breast
  TGI: > 100 µM
OVCAR-5 ovarian
  TGI: > 100 µM
ACHN renal
  TGI: > 100 µM
NCI-H460 lung
  TGI: > 100 µM
NCI-H226 lung
  TGI: > 100 µM
SK-MEL-5 melanoma
  TGI: > 100 µM
SF-268 CNS
  TGI: > 100 µM
RXF 393 renal
  TGI: > 100 µM
SK-MEL-2 melanoma
  TGI: > 100 µM
SNB-75 CNS
  TGI: > 100 µM
SN12C renal
  TGI: > 100 µM
786-0 renal
  TGI: > 100 µM
M14 melanoma
  TGI: > 100 µM
MCF7 breast
  TGI: > 100 µM
HCT-15 colon
  TGI: > 100 µM
A498 renal
  TGI: > 100 µM
OVCAR-3 ovarian
  TGI: > 100 µM
A549 NSCLC
  TGI: > 100 µM
BT-549 breast
  TGI: > 100 µM
CAKI-1 renal
  TGI: > 100 µM
SW-620 colon
  TGI: > 100 µM

## CC(C)NC(=O)OCc1c(COC(=O)NC(C)C)c(-c2ccc[n+](COC(=O)C(C)C)c2)n2c1CCC2
MDA-MB-231 breast
  TGI: > 100 µM
PC-3 prostate
  TGI: > 100 µM
HCT-116 colon
  TGI: > 100 µM
KM12 colon
  TGI: > 100 µM
SF-539 CNS
  TGI: > 83.3 µM
RPMI-8226 leukemia
  TGI: > 100 µM
OVCAR-8 ovarian
  TGI: > 100 µM
TK-10 renal
  TGI: > 100 µM
HT29 colon
  TGI: > 100 µM
MOLT-4 leukemia
  TGI: > 79.3 µM
NCI-H23 lung
  TGI: > 100 µM
UO-31 renal
  TGI: > 100 µM
SF-295 CNS
  TGI: > 100 µM
LOX IMVI melanoma
  TGI: > 100 µM
UACC-62 melanoma
  TGI: > 100 µM
SNB-19 CNS
  TGI: > 100 µM
MDA-N
  TGI: > 100 µM
T-47D breast
  TGI: > 100 µM
SR leukemia
  TGI: 97.4 µM
CCRF-CEM leukemia
  TGI: > 91.2 µM
NCI-H522 lung
  TGI: 91.4 µM
HOP-92 NSCLC
  TGI: > 94.6 µM
IGROV1 ovarian
  TGI: > 100 µM
K-562 leukemia
  TGI: > 100 µM
OVCAR-4 ovarian
  TGI: > 100 µM
DU-145 prostate
  TGI: > 100 µM
HL-60(TB) leukemia
  TGI: > 59.4 µM
SK-MEL-28 melanoma
  TGI: > 100 µM
MALME-3M melanoma
  TGI: > 100 µM
HOP-62 NSCLC
  TGI: > 100 µM
HCC-2998 colon
  TGI: > 100 µM
NCI/ADR-RES ovarian
  TGI: > 100 µM
SK-OV-3 ovarian
  TGI: > 100 µM
EKVX NSCLC
  TGI: > 100 µM
COLO 205 colon
  TGI: > 100 µM
UACC-257 melanoma
  TGI: > 100 µM
U251 CNS
  TGI: > 100 µM
MDA-MB-435
  TGI: > 100 µM
HS 578T breast
  TGI: > 100 µM
OVCAR-5 ovarian
  TGI: > 100 µM
ACHN renal
  TGI: > 100 µM
NCI-H460 lung
  TGI: > 100 µM
NCI-H226 lung
  TGI: > 100 µM
SK-MEL-5 melanoma
  TGI: > 100 µM
SF-268 CNS
  TGI: > 100 µM
RXF 393 renal
  TGI: > 89.6 µM
SK-MEL-2 melanoma
  TGI: > 100 µM
SNB-75 CNS
  TGI: > 100 µM
SN12C renal
  TGI: > 100 µM
786-0 renal
  TGI: > 100 µM
M14 melanoma
  TGI: > 100 µM
MCF7 breast
  TGI: > 100 µM
HCT-15 colon
  TGI: > 100 µM
A498 renal
  TGI: 61.2 µM
OVCAR-3 ovarian
  TGI: > 100 µM
A549 NSCLC
  TGI: > 100 µM
BT-549 breast
  TGI: > 100 µM
CAKI-1 renal
  TGI: 74.2 µM
SW-620 colon
  TGI: > 100 µM
